Paper PMC11725581, “Developing novel Lin28 inhibitors by computer aided drug design” (Cell Death Discovery, 2025)
Numbering of substitutions follows the chain as printed.

Assays:
Lin28b ZKD [1] = target: T1, Lin28b ZKD (Homo sapiens, UniProt Q6ZN17); test: Fluorescence polarization (FP) assay, Lin28b ZKD:pre-let-7d interaction; assay type: binding; settings: for IC50: 10 nM pre-let-7d probe, 1 μM Lin28b ZKD; for activity in protein-based assays: FP / EMSA
T1 sequence (Q6ZN17 127-166 limits assumed): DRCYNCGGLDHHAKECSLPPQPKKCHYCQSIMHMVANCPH
Experimental: (§1) We conducted two biochemical assays, FP and EMSA, to validate the predicted compounds. To optimize the FP assays, we performed a series of titrations using: (1) FAM-labeled pre-let-7d RNA probe, (2) Lin28b ZKD protein, and (3) non-labeled pre-let-7 probe as a competitor (Fig. 2A). These assays yielded the optimal concentrations required for the subsequent FP validation assays, namely 10 nM for the pre-let-7d probe and 1 μM for Lin28b ZKD protein. The FP signal from the free probe was set as 0%, while the signal from the probe-ZKD complex in the absence of compounds was set as 100%. C1632 was used as a control Lin28 inhibitor (Fig. 2B). […] Since the docking pocket is almost identical between Lin28a and Lin28b homologs, we repeated the FP assays using Lin28a ZKD (Figure S2).
The fluorescein amidites (FAM)-tagged pre-Let-7d probe with the sequence of […] was purchased from Integrated DNA Technologies (IDT). The probe at the concentrations ranging from 1 nM to 50 uM was incubated with Lin28B (ZKD) or Lin28 (CSD+ZKD) to a final volume of 30 uL at room temperature for 20 min. To read the fluorescence, a TECAN 500 machine was used. Fluorescence polarization was calculated using the following equation:
P=(Fparrallel−Fperpendicular)/(Fparrallel+FperpendicularP)
where P is the fluorescence polarization reading, F parallel is the fluorescence intensity acquired from the parallel excitation plane, and F perpendicular is the fluorescence intensity acquired from the perpendicular direction of the excitation plane. The total fluorescence intensity is estimated using the following equation:
F=Fparallel+2FperpendicularF.
(§2) All the raw FP signal data from the TECAN 500 FP results were analyzed using Prism 8.0 (GraphPad, San Diego, CA, USA); normalized curves were plotted and IC50 values were estimated. All FP data were repeated three to five times.
Figure S1. Lin28b ZKD protein was incubated with the indicated compounds at the concentration of 0, 0.1, 0.2, 0.5, 1, 2, 5, 10, 20, 50, 100, and 200uM. FP signals were measured and plotted relative to that from vehicle.

Lin28a ZKD = target: T2, Lin28a ZKD (Homo sapiens, UniProt Q9H9Z2); test: Fluorescence polarization (FP) assay, Lin28a ZKD:pre-let-7 interaction; assay type: binding; settings: 0-200 uM
T2 sequence (Q9H9Z2 137-176 limits assumed): T1 sequence (Q6ZN17 127-166 limits assumed) with S17K, Y27F, M32S, N37S, H40L
Experimental: as §1
The fluorescein amidites (FAM)-tagged pre-Let-7d probe with the sequence of […] was purchased from Integrated DNA Technologies (IDT). The probe at the concentrations ranging from 1 nM to 50 uM was incubated with Lin28B (ZKD) or Lin28 (CSD+ZKD) to a final volume of 30 uL at room temperature for 20 min. To read the fluorescence, a TECAN 500 machine was used. Fluorescence polarization was calculated using the following equation: […]
as §2
Figure S2. Lin28a ZKD protein was incubated with the indicated compounds at the concentration of 0, 0.1, 0.2, 0.5, 1, 2, 5, 10, 20, 50, 100, and 200uM. FP signals were measured and plotted relative to that from vehicle.

[2] = test system: Lin28b protein expression in DuNE cells; test: Lin28b protein levels by immunoblotting in DuNE cells; assay type: cell-based; settings: 20uM, 72 h
Experimental: We further tested whether the 13 candidate compounds could penetrate the cell membrane, endure cell-mediated metabolism and excretion, and inhibit Lin28 activities inside cancer cells. […] Since let-7 and Lin28b mutually regulate each other’s expression, increased let-7 expression by Lin28 inhibitors would suppress Lin28b protein levels.
Fig. 3 Validate CADD predicted compounds by cell-based assays. A, B DuNE cells were treated with Lin28b inhibitors for 72 h. Let-7d RNA levels were measured by real-time qPCR (A) and Lin28b protein levels were measured by immunoblotting (B). […] Cell proliferation rates were measured by Incucyte. D Overlay of 1H-15N HSQC spectra for Lin28b-ZKD (black), Lin28b-ZKD + Ln15 (orange), and Lin28b-ZKD + Ln268 (blue). Ligands were added in a 20:1 molar ratio. Approximately 20 residues are seen to shift (from black to orange/blue), with ca. 5 resonances disappearing for Lin28b-ZKD in the presence of Ln268. E Overlay of the 20 NMR models for 2CQF (gray) and 2LI8 (blue) showing the rearrangement of residues 137–160 in going from Lin28b-ZKD alone to the conformation with RNA present. The conformation of Lin28b-ZKD in the presence of the ligands described herein might resemble that of 2LI8, but with a larger conformational spread. All results are presented as the mean ± SD.
Total RNA was extracted by TRIZOL reagent (Invitrogen), treated with deoxyribonuclease and reversely transcribed by random hexamers and superscript II (Invitrogen). Real-time qPCR was performed on the ABI PRISM 7900 HT system (Applied Biosystems) using the FastStart Universal SYBR Green Master mix (Roche) following standard protocol as we reported. All real-time qPCR assays were carried out in triplicates from three independent cDNA syntheses. For immunoblotting assays, whole cell lysis was extracted by a buffer containing 50mM of Tris pH8.0, 150mM of NaCl, 1% NP40, 0.5% sodium deoxycholate, 0.1% SDS and proteinase and phosphatase inhibitors (Roche). Protein lysis separated by SDS-PAGE, transferred to polyvinylidene difluoride membrane, and blotted by specific antibodies.

Lin28b ZKD [3] = target: T1, Lin28b ZKD; test: EMSA, Lin28b ZKD:pre-let-7d complex formation; assay type: binding; settings: 1 μM Lin28 ZKD, 10 nM IRDye800-labeled pre-let-7d probe
Experimental: We next validated the newly developed compounds using EMSA, a non-florescent-based assay to detect Lin28b ZKD:pre-let-7 complex formation. Similar to the FP assays, we first optimized the experimental conditions by titrating: (1) IRDye800-labeled pre-let-7d RNA probe, (2) Lin28b ZKD protein, and (3) non-labeled pre-let-7 probe as a competitor (Fig. 2C). For the validation experiments, 1 μM Lin28 ZKD and 10 nM of IRDye800-labeled pre-let-7d probe were mixed with each candidate compound. Compounds C1632 and Ln15 were used as control Lin28 inhibitors, respectively. […] Regardless, we use these two biochemical assays to shortlist the most promising compounds for further characterization. […] While our inhibitors directly target the Lin28 ZKD, it is unclear whether C1632 may bind to domains other than the ZKD or allosterically disrupt Lin28’s capacity to bind its RNA substrates.
EMSA followed the standard protocols we published. An IRDye800CWN-labeled pre-Let-7d RNA probe (5’-IRD800CWN-[…]-3’) was purchased from IDT (Coralville, IA, USA). Lin28a or Lin28b proteins were incubated with 300 nM of probe in a standard 20 uL EMSA reaction in a reaction buffer containing 20 mM HEPES-NaOH, pH 7.4, 2 mM DTT, 3 mM MgCl2, 0.05% NP-40, protease inhibitors, and 0.1 ug poly[dI:dC]. After incubation for 30 min at 37 °C, reactions were loaded onto 4% non-denatured polyacrylamide gel in 0.5× TBE buffer. The RNA oligo bands were visualized by using the Li-Cor Odyssey 9120 Infrared Imaging System.

O=c1cccc(-c2nc(=O)c3cc(O)c(F)cc3[nH]2)[nH]1 [Ln115]
IC50 (Lin28b ZKD [1]): 21 µM

CC(C)(C)c1ccc(O)c(Nc2cccc(=O)[nH]2)c1 [Ln250]
FP potency relative to Ln15 (Lin28b ZKD [1]; FP assays used for SAR guided design): outperformed Ln15

CC(C)c1cc(Nc2csc(=O)[nH]2)c(O)cc1O [Ln267]
IC50 (Lin28b ZKD [1]): 4.67 µM
activity in protein-based assays (Lin28b ZKD [1]): higher potency in FP assays
potency in blocking the Lin28a ZKD:pre-let-7 interaction (FP) relative to parents (Lin28a ZKD): more potent than Ln15 and Ln115
effect on Lin28b protein expression [2]: suppressed Lin28b protein expression

Cc1cccc(Nc2csc(=O)[nH]2)c1O [Ln269]
inhibition of Lin28b ZKD:pre-let-7d complex formation (EMSA) (Lin28b ZKD [3]): capable of inhibiting Lin28:pre-let-7d complex formation in a dose-dependent manner
effect on Lin28b protein expression [2]: suppressed Lin28b protein expression

O=c1cccc(-c2nc3cc(F)c(O)c(F)c3c(=O)[nH]2)[nH]1 [Ln272]
potency in blocking the Lin28a ZKD:pre-let-7 interaction (FP) relative to parents (Lin28a ZKD): more potent than Ln15 and Ln115
effect on Lin28b protein expression [2]: suppressed Lin28b protein expression

Cc1c(F)c(O)c(F)c2c(=O)[nH]c(-c3cccc(=O)[nH]3)nc12 [Ln273]
effect on Lin28b protein expression [2]: suppressed Lin28b protein expression

Cc1cc2[nH]c(-c3cccc(=O)[nH]3)nc(=O)c2cc1O [Ln274]
inhibition of Lin28b ZKD:pre-let-7d complex formation (EMSA) (Lin28b ZKD [3]): capable of inhibiting Lin28:pre-let-7d complex formation in a dose-dependent manner

Cc1cc(-c2nc(=O)c3cc(O)c(F)cc3[nH]2)[nH]c(=O)c1 [Ln275]
activity in protein-based assays (Lin28b ZKD [1]): inactive

O=c1cccc(-c2nc(=O)c3cc(O)c(CO)cc3[nH]2)[nH]1 [Ln276]
inhibition of Lin28b ZKD:pre-let-7d complex formation (EMSA) (Lin28b ZKD [3]): capable of inhibiting Lin28:pre-let-7d complex formation in a dose-dependent manner

CN(C)c1ccc(=O)[nH]c1-c1nc(=O)c2cc(O)c(F)cc2[nH]1 [Ln277]
activity in protein-based assays (Lin28b ZKD [1]): inactive

Cn1cnc2c(=O)[nH]c(-c3nc(=O)c4cc(O)c(F)cc4[nH]3)cc21 [Ln279]
activity in protein-based assays (Lin28b ZKD [1]): active
potency in blocking the Lin28a ZKD:pre-let-7 interaction (FP) relative to parents (Lin28a ZKD): more potent than Ln15 and Ln115
inhibition of Lin28b ZKD:pre-let-7d complex formation (EMSA) (Lin28b ZKD [3]): capable of inhibiting Lin28:pre-let-7d complex formation in a dose-dependent manner

Cc1cc(O)cc2c(=O)nc(-c3nccc(=O)[nH]3)[nH]c12 [Ln282]
activity in protein-based assays (Lin28b ZKD [1]): inactive

O=c1cccc(Nc2ccc(O)cc2O)[nH]1 [Ln295]
activity in protein-based assays (Lin28b ZKD [1]): inactive

O=c1cccc(Nc2ccccc2O)[nH]1 [Ln296]
activity in protein-based assays (Lin28b ZKD [1]): inactive

O=c1cccc(Nc2ncc(O)cc2O)[nH]1 [Ln298]
activity in protein-based assays (Lin28b ZKD [1]): active
potency in blocking the Lin28a ZKD:pre-let-7 interaction (FP) relative to parents (Lin28a ZKD): more potent than Ln15 and Ln115
inhibition of Lin28b ZKD:pre-let-7d complex formation (EMSA) (Lin28b ZKD [3]): capable of inhibiting Lin28:pre-let-7d complex formation in a dose-dependent manner
effect on Lin28b protein expression [2]: suppressed Lin28b protein expression

O=c1cccc(Nc2ccncc2O)[nH]1 [Ln300]
activity in protein-based assays (Lin28b ZKD [1]): active
potency in blocking the Lin28a ZKD:pre-let-7 interaction (FP) relative to parents (Lin28a ZKD): more potent than Ln15 and Ln115
inhibition of Lin28b ZKD:pre-let-7d complex formation (EMSA) (Lin28b ZKD [3]): capable of inhibiting Lin28:pre-let-7d complex formation in a dose-dependent manner
effect on Lin28b protein expression [2]: suppressed Lin28b protein expression

Cc1c(O)cnc(Nc2cccc(=O)[nH]2)c1O [Ln302]
IC50 (Lin28b ZKD [1]): 3.63 µM
potency in blocking the Lin28a ZKD:pre-let-7 interaction (FP) relative to parents (Lin28a ZKD): more potent than Ln15 and Ln115
inhibition of Lin28b ZKD:pre-let-7d complex formation (EMSA) (Lin28b ZKD [3]): capable of inhibiting Lin28:pre-let-7d complex formation in a dose-dependent manner

O=c1cccc(Nc2cccc(O)c2O)[nH]1 [Ln306]
potency in blocking the Lin28a ZKD:pre-let-7 interaction (FP) relative to parents (Lin28a ZKD): more potent than Ln15 and Ln115
inhibition of Lin28b ZKD:pre-let-7d complex formation (EMSA) (Lin28b ZKD [3]): capable of inhibiting Lin28:pre-let-7d complex formation in a dose-dependent manner
